Measured values as given in ChEMBL document CHEMBL1201862, “PubChem BioAssay data set” (2004).
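Briefly, cells in 96-well plates were exposed to five compound concentrations for 48 h, and endpoints were estimated by linear interpolation. GI50 = concentration required for 50% inhibition of growth.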 Calls of active or inactive are those of the source. Cut-off read from the data, not from the text of the source: active = GI50 up to about 1.1 µM and inactive = higher.

Key:
Experiment in all cases: NCI tumour cell line growth inhibition, 48 h
CAKI-1 = test system: CAKI-1
EKVX = test system: EKVX
HOP-62 = test system: HOP-62
SW-620 = test system: SW-620
OVCAR-3 = test system: OVCAR-3
NCI-H460 = test system: NCI-H460
U-251 = test system: U-251
OVCAR-5 = test system: OVCAR-5
Hs-578T = test system: Hs-578T
UACC-257 = test system: UACC-257
OVCAR-8 = test system: OVCAR-8
SK-MEL-5 = test system: SK-MEL-5
SK-MEL-2 = test system: SK-MEL-2
NCI-H226 = test system: NCI-H226
KM12 = test system: KM12
SK-OV-3 = test system: SK-OV-3
HCC 2998 = test system: HCC 2998
IGROV-1 = test system: IGROV-1
LOX IMVI = test system: LOX IMVI
A498 = test system: A498

Measured: GI50

COc1ccc(/C(Br)=C2\OC(=O)c3ccccc32)cc1
inactive: CAKI-1 > 10 µM | EKVX > 10 µM | HOP-62 > 10 µM | SW-620 > 10 µM | OVCAR-3 > 10 µM | NCI-H460 > 10 µM | U-251 > 10 µM | OVCAR-5 > 10 µM | Hs-578T > 10 µM | UACC-257 > 10 µM | OVCAR-8 > 10 µM | SK-MEL-5 > 10 µM | SK-MEL-2 > 10 µM | NCI-H226 > 10 µM | KM12 > 10 µM | SK-OV-3 > 10 µM | HCC 2998 > 10 µM | IGROV-1 > 10 µM | LOX IMVI > 10 µM

C=CCOC(=O)C[C@H](NC(=O)[C@H](Cc1ccc(O)cc1)NCC(F)(F)F)C(=O)OCC=C
inactive: CAKI-1 > 100 µM | EKVX 25.5 µM | HOP-62 > 100 µM | SW-620 54.3 µM | NCI-H460 59.6 µM | U-251 > 100 µM | OVCAR-5 > 100 µM | Hs-578T 41.7 µM | UACC-257 20.8 µM | OVCAR-8 > 100 µM | SK-MEL-5 30.5 µM | SK-MEL-2 21.3 µM | NCI-H226 > 100 µM | KM12 > 100 µM | SK-OV-3 > 100 µM | HCC 2998 83.4 µM | IGROV-1 > 100 µM | LOX IMVI 65.5 µM

Nc1nc(N)c(-c2ccc(Cl)cc2)c(CCC(=O)Nc2cccc(C(F)(F)F)c2)n1
inactive: CAKI-1 > 100 µM | EKVX > 100 µM | HOP-62 > 100 µM | SW-620 > 100 µM | OVCAR-3 > 100 µM | NCI-H460 > 100 µM | U-251 > 100 µM | OVCAR-5 > 100 µM | UACC-257 > 100 µM | OVCAR-8 > 100 µM | SK-MEL-5 > 100 µM | SK-MEL-2 > 100 µM | NCI-H226 > 100 µM | KM12 > 100 µM | SK-OV-3 > 100 µM | A498 > 100 µM | HCC 2998 > 100 µM | IGROV-1 > 100 µM | LOX IMVI > 100 µM

CCO/C([O-])=C(\C(=O)c1ccccc1)[n+]1c(C)n(C)c2ccccc21
inactive: CAKI-1 > 100 µM | EKVX > 100 µM | HOP-62 > 100 µM | SW-620 > 100 µM | OVCAR-3 > 100 µM | NCI-H460 > 100 µM | U-251 > 100 µM | OVCAR-5 > 100 µM | UACC-257 > 100 µM | OVCAR-8 > 100 µM | SK-MEL-5 > 100 µM | SK-MEL-2 > 100 µM | NCI-H226 > 100 µM | KM12 > 100 µM | SK-OV-3 > 100 µM | A498 > 100 µM | HCC 2998 > 100 µM | IGROV-1 > 100 µM | LOX IMVI > 100 µM

COC(=O)/C(=N\NC(C)(C)C)C(C(=O)OC)C(=O)C(=O)Nc1cc(Cl)ccc1Cl (centres undefined)
inactive: CAKI-1 > 100 µM | EKVX > 100 µM | HOP-62 > 100 µM | SW-620 > 100 µM | OVCAR-3 > 100 µM | NCI-H460 > 100 µM | U-251 > 100 µM | OVCAR-5 > 100 µM | UACC-257 > 100 µM | OVCAR-8 > 100 µM | SK-MEL-5 > 100 µM | SK-MEL-2 > 100 µM | NCI-H226 > 100 µM | KM12 > 100 µM | SK-OV-3 > 100 µM | A498 > 100 µM | HCC 2998 > 100 µM | IGROV-1 > 100 µM | LOX IMVI > 100 µM
